Data on 14 compounds can be found in patent US20220356174A1, “PYRIDIN-2-ONE COMPOUNDS USEFUL AS SMARCA2 ANTAGONISTS” (Epizyme, Inc., priority 2018, published 2022).

Each structure is given as a SMILES string.

Chain of FL-SMARCA4 (P51532 whole entry): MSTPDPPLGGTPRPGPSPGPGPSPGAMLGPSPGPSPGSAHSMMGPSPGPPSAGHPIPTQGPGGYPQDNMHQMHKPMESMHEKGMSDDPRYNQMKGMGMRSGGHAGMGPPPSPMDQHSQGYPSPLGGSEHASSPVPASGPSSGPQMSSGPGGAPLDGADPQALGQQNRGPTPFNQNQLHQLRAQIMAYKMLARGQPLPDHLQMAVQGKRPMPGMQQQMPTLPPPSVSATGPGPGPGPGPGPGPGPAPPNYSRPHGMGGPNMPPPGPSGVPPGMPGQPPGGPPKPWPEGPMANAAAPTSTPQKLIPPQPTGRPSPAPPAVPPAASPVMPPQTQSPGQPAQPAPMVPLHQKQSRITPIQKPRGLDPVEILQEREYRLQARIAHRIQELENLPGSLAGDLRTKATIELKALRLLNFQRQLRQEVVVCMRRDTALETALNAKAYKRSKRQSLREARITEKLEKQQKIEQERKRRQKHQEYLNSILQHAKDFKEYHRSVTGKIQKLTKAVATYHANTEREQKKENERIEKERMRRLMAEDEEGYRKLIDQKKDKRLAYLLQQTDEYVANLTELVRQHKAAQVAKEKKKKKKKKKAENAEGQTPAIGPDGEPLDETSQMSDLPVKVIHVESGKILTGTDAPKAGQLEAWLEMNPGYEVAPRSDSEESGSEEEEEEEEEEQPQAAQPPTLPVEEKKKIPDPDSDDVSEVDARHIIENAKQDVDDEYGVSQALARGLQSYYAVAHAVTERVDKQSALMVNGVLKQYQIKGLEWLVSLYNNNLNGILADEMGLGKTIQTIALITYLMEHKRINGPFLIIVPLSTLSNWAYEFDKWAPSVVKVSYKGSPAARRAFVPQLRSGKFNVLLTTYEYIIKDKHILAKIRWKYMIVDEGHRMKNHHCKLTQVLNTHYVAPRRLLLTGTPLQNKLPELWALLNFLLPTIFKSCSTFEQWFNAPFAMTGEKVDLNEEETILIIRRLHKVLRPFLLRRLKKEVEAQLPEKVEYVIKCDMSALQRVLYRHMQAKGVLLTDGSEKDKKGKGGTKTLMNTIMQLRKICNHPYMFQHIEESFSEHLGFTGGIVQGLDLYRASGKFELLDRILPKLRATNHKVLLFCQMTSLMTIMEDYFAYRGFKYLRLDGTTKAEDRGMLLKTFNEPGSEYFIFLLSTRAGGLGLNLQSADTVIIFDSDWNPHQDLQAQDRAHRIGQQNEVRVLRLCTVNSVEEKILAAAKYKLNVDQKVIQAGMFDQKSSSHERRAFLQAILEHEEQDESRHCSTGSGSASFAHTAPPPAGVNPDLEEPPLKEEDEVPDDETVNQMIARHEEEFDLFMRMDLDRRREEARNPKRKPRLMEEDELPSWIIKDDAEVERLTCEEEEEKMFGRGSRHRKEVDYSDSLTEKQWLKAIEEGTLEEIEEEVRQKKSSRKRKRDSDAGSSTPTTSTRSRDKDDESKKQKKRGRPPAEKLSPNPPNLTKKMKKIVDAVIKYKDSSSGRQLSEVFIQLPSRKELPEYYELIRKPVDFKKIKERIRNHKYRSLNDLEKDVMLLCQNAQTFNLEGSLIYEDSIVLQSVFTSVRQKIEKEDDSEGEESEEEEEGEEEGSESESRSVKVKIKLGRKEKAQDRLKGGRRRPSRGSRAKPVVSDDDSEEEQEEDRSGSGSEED

The first experiment concerns the target FL-SMARCA4 (Homo sapiens, UniProt P51532). Briefly: SMARCA4 ATPase activity assay (ADP-Glo, chicken mononucleosome substrate). The settings on record: FL-SMARCA4 IC50.
The compound `O=C(Nc1cc(F)c(=O)n(CC(F)F)c1)c1cc(C#C[C@H]2C[C@H](CO)C2)c(Cl)s1` [Compound 133d] gave an IC50 of 165 nM.

`CN(C)C(=O)C#Cc1cc(C(=O)Nc2cc(F)c(=O)n(CC(F)F)c2)sc1Cl` [Compound 71d] returned an IC50 of 1260 nM.

The compound `N#Cc1cc(NC(=O)c2cc(Cl)c(C(F)(F)F)s2)cn(CC(F)F)c1=O` [Compound 86d] gave an IC50 of 512 nM.

Compound `Cc1cc(NC(=O)c2cc(C#N)c(C(F)(F)F)s2)cn(CC(F)F)c1=O` [Compound 75d] registered an IC50 of 11300 nM.

On to `N#Cc1cc(C(=O)Nc2cc(O)c(=O)n(CC(F)F)c2)sc1C(F)(F)F` [Compound 88d], for which the IC50 came to 3970 nM.

The compound `N#Cc1cc(C(=O)Nc2cc(C(N)=O)c(=O)n(CC(F)F)c2)sc1C(F)(F)F` [Compound 137d] displayed an IC50 greater than 50000 nM.

For `O=C(Nc1cc(F)c(=O)n(CC(F)F)c1)c1cc(C#Cc2ccc3cncn3c2)c(Cl)s1` [Compound 96d], the IC50 was determined as 97.3 nM.

Compound `O=C(Nc1cc(F)c(=O)n(CC(F)F)c1)c1cc(C#C[C@H]2C[C@@H](CO)C2)c(Cl)s1` [Compound 134d] came in with an IC50 of 58.7 nM.

As for `O=C1C[C@H](C#Cc2cc(C(=O)Nc3cc(F)c(=O)n(CC(F)F)c3)sc2Cl)CCN1` [Compound 63d], the IC50 was 518 nM.

For `O=C(Nc1cc(F)c(=O)n(CC(F)F)c1)c1cc(C#CC(=O)N2CCCC2)c(Cl)s1` [Compound 70d], the IC50 worked out at 4750 nM.

Take `O=C(Nc1cc(F)c(=O)n(CC(F)F)c1)c1cc(C#CC2CNCCO2)c(Cl)s1` (centres unmarked) [Compound 109d]: the IC50 was found to be 3160 nM.

In turn, `Cc1cc(NC(=O)c2cc(Cl)c(C(F)(F)F)s2)cn(CC(F)F)c1=O` [Compound 82d] yielded an IC50 of 8090 nM.

On to `O=C(Nc1cc(F)c(=O)n(CC(F)F)c1)c1cc(C#Cc2cn3c(n2)COCC3)c(Cl)s1` [Compound 90d], for which the IC50 was 2710 nM.

`CC(N)C#Cc1cc(C(=O)Nc2cc(F)c(=O)n(CC(F)F)c2)sc1Cl` (centres unmarked) [Compound 138d] registered an IC50 of 4610 nM.

The target in a further experiment is T1, FL-SMARCA2 (full-length human SMARCA2 isoform 1) (Homo sapiens, UniProt P51531).
T1 construct: FLAG tag (YKDDDDK) (C); made in house; host or cells: Sf21 insect cells (baculovirus, pFastBacI)
T1 sequence (P51531 with tags, fused parts or gaps): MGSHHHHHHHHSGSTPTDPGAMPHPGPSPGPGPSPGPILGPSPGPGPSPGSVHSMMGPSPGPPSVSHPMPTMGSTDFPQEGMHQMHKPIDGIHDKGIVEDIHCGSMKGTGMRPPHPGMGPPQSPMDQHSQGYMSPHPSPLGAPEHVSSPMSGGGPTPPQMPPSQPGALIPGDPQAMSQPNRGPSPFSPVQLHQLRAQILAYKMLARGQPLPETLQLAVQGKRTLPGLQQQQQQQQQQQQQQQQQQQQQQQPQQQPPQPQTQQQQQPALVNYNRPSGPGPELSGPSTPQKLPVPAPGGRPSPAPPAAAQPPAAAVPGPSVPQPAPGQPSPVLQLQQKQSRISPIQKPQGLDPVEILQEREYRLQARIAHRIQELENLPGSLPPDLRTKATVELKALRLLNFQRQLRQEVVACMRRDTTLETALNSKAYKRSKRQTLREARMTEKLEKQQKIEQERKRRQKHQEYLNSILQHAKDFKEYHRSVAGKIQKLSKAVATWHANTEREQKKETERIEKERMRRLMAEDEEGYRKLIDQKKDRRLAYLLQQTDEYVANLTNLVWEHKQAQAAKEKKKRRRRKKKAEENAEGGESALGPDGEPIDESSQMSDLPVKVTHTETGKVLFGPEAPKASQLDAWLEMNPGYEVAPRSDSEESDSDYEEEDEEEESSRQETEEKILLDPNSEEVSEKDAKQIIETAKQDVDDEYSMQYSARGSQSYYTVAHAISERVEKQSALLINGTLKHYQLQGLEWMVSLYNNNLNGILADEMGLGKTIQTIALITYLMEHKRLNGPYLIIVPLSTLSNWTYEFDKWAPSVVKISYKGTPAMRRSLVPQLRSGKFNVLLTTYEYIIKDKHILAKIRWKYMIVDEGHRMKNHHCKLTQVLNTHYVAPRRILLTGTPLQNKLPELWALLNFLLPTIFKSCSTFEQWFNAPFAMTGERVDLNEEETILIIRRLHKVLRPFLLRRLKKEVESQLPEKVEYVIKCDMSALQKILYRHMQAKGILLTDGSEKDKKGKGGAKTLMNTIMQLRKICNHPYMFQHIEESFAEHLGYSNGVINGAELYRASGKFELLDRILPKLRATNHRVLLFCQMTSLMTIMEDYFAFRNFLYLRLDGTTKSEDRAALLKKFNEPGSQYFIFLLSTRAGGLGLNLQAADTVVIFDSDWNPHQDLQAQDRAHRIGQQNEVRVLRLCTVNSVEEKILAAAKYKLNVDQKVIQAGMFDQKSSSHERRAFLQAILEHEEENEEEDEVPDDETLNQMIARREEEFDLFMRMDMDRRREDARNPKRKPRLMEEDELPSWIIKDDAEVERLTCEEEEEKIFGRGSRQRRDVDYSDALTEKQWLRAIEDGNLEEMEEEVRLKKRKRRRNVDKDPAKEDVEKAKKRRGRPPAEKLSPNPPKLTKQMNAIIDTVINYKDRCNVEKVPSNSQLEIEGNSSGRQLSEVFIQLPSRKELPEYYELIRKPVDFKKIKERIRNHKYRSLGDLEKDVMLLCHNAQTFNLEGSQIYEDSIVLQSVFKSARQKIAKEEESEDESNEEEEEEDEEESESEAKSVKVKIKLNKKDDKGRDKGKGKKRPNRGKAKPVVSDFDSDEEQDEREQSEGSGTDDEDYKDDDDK
Kind of experiment: SMARCA2 ATPase activity assay (ADP-Glo, chicken mononucleosome substrate). The settings on record: Table 3d.1; ATPase assay, enzyme 5 nM, ATP 250 uM, chicken mononucleosome 10 nM, 30 min preincubation; read-out: FL-SMARCA2 IC>50. Format: biochemical. A general note: In ADP-Glo the light output rises with the ADP produced.
For `O=C(Nc1cc(F)c(=O)n(CC(F)F)c1)c1cc(C#C[C@H]2C[C@H](CO)C2)c(Cl)s1` [Compound 133d], the IC50 is 46.1 nM.

In the case of `CN(C)C(=O)C#Cc1cc(C(=O)Nc2cc(F)c(=O)n(CC(F)F)c2)sc1Cl` [Compound 71d], the IC50 amounted to 536 nM.

For the compound `N#Cc1cc(NC(=O)c2cc(Cl)c(C(F)(F)F)s2)cn(CC(F)F)c1=O` [Compound 86d], the IC50 was 101 nM.

Turning to `Cc1cc(NC(=O)c2cc(C#N)c(C(F)(F)F)s2)cn(CC(F)F)c1=O` [Compound 75d], the IC50 was 948 nM.

As to `N#Cc1cc(C(=O)Nc2cc(O)c(=O)n(CC(F)F)c2)sc1C(F)(F)F` [Compound 88d], the IC50 was 576 nM.

Turning to `N#Cc1cc(C(=O)Nc2cc(C(N)=O)c(=O)n(CC(F)F)c2)sc1C(F)(F)F` [Compound 137d], the IC50 was greater than 50000 nM.

As to `O=C(Nc1cc(F)c(=O)n(CC(F)F)c1)c1cc(C#Cc2ccc3cncn3c2)c(Cl)s1` [Compound 96d], the IC50 was 38.1 nM.

Consider `O=C(Nc1cc(F)c(=O)n(CC(F)F)c1)c1cc(C#C[C@H]2C[C@@H](CO)C2)c(Cl)s1` [Compound 134d], for which the IC50 came out at 18.8 nM.

As for `O=C1C[C@H](C#Cc2cc(C(=O)Nc3cc(F)c(=O)n(CC(F)F)c3)sc2Cl)CCN1` [Compound 63d], the IC50 worked out at 165 nM.

For `O=C(Nc1cc(F)c(=O)n(CC(F)F)c1)c1cc(C#CC(=O)N2CCCC2)c(Cl)s1` [Compound 70d], the IC50 turned out to be 1690 nM.

`O=C(Nc1cc(F)c(=O)n(CC(F)F)c1)c1cc(C#CC2CNCCO2)c(Cl)s1` (centres unmarked) [Compound 109d]: the IC50 was 1060 nM.

Take `Cc1cc(NC(=O)c2cc(Cl)c(C(F)(F)F)s2)cn(CC(F)F)c1=O` [Compound 82d]: the IC50 was 1360 nM.

As for `O=C(Nc1cc(F)c(=O)n(CC(F)F)c1)c1cc(C#Cc2cn3c(n2)COCC3)c(Cl)s1` [Compound 90d], the IC50 was 1390 nM.

With `CC(N)C#Cc1cc(C(=O)Nc2cc(F)c(=O)n(CC(F)F)c2)sc1Cl` (centres unmarked) [Compound 138d], the IC50 is 1680 nM.

The test system of another experiment is A549 cells. Briefly: High-throughput proliferation (HTP) assay for A549 cells (CellTiter-Glo, 7 days). Format: cell-based. As to conditions: Homo sapiens, 168 h, read-out: A549 SMARCA2 IC50. Summed up:
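A549 cells plated at 62.5 cells/well in F12K + 10% HI-FBS onto pre-dispensed compound, grown 7 days at 37° C., 5% CO2. Viability by CellTiter-Glo luminescence after 30 min at RT; EC50/IC50 from DMSO (0%) and 10 μM Doxorubicin (100%) inhibition controls.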
(In ATP-based viability assays light output follows the ATP content of the culture.)
With `O=C(Nc1cc(F)c(=O)n(CC(F)F)c1)c1cc(C#C[C@H]2C[C@H](CO)C2)c(Cl)s1` [Compound 133d], the IC50 was determined as 2890 nM.

In the case of `CN(C)C(=O)C#Cc1cc(C(=O)Nc2cc(F)c(=O)n(CC(F)F)c2)sc1Cl` [Compound 71d], the IC50 is 2380 nM.

`N#Cc1cc(NC(=O)c2cc(Cl)c(C(F)(F)F)s2)cn(CC(F)F)c1=O` [Compound 86d]: the IC50 worked out at 3950 nM.

Turning to `Cc1cc(NC(=O)c2cc(C#N)c(C(F)(F)F)s2)cn(CC(F)F)c1=O` [Compound 75d], the IC50 is greater than 10000 nM.

Consider `N#Cc1cc(C(=O)Nc2cc(O)c(=O)n(CC(F)F)c2)sc1C(F)(F)F` [Compound 88d], for which the IC50 was greater than 10000 nM.

Consider `N#Cc1cc(C(=O)Nc2cc(C(N)=O)c(=O)n(CC(F)F)c2)sc1C(F)(F)F` [Compound 137d], for which the IC50 is greater than 10000 nM.

Consider `O=C(Nc1cc(F)c(=O)n(CC(F)F)c1)c1cc(C#Cc2ccc3cncn3c2)c(Cl)s1` [Compound 96d], for which the IC50 was determined as 4440 nM.

Turning to `O=C(Nc1cc(F)c(=O)n(CC(F)F)c1)c1cc(C#C[C@H]2C[C@@H](CO)C2)c(Cl)s1` [Compound 134d], the IC50 worked out at 1330 nM.

Take `O=C1C[C@H](C#Cc2cc(C(=O)Nc3cc(F)c(=O)n(CC(F)F)c3)sc2Cl)CCN1` [Compound 63d]: the IC50 is greater than 10000 nM.

On to `O=C(Nc1cc(F)c(=O)n(CC(F)F)c1)c1cc(C#CC(=O)N2CCCC2)c(Cl)s1` [Compound 70d], for which the IC50 was 1960 nM.

Consider `O=C(Nc1cc(F)c(=O)n(CC(F)F)c1)c1cc(C#CC2CNCCO2)c(Cl)s1` (centres unmarked) [Compound 109d], for which the IC50 was greater than 10000 nM.

Turning to `Cc1cc(NC(=O)c2cc(Cl)c(C(F)(F)F)s2)cn(CC(F)F)c1=O` [Compound 82d], the IC50 came out at 4730 nM.

Take `O=C(Nc1cc(F)c(=O)n(CC(F)F)c1)c1cc(C#Cc2cn3c(n2)COCC3)c(Cl)s1` [Compound 90d]: the IC50 was greater than 10000 nM.

With `CC(N)C#Cc1cc(C(=O)Nc2cc(F)c(=O)n(CC(F)F)c2)sc1Cl` (centres unmarked) [Compound 138d], the IC50 is greater than 10000 nM.

The next experiment has as its system H358 cells. Briefly: High-throughput proliferation (HTP) assay for H358 cells (CellTiter-Glo, 7 days). Format: cell-based. The settings on record: Homo sapiens, NCI-H358, 168 h, read-out: H358 SMARCA2 IC50. Here is the method:
Thawing vials: H358 cells (ATCC #CRL-5807™) were thawed from a cryovial containing approximately 1.6×10^6 cells frozen in 70% RPMI 1640 medium, 20% HI-FBS and 10% DMSO. Cells were thawed by submerging the bottom half of the vial in a 37° C. water bath and gently flicked until almost thawed. The cells were removed and transferred into a 15 mL conical tube containing 9 mL RPMI 1640 medium+10% HI-FBS and then centrifuged 200×g for 4 min before drawing off the media without disturbing the cell pellet to remove the DMSO. The cells were resuspended again in 15 mL of RPMI 1640 fresh complete media+10% HI-FBS and grown up in a T75 flask at 37° C. with 5% CO2 Incubator. Viability was measured to obtain baseline.
Preparing frozen stock vials: Cell density was counted in a stock flask. The culture was transferred to a 50 mL conical tube and spun down to remove medium, and then resuspend at 1-2×10^6 cells/mL in complete medium containing 10% DMSO and transferred to a 1 mL per vial.
Routine subculture: Sub-confluent cultures (70-80%) were split every 4 days, seeding out at 1-2×10^6 cells/75 cm^2.
Day 0: Assay ready plates were prepared by dispensing 50 nL of compound stock or DMSO in the appropriate wells of 384-well white CulturPlates using Echo550. Using the Multiflo, H358 cells at 50 μL/well were plated in RPMI 1640 complete media+10% HI-FBS+1% pen/strep at cell density determined [20,000 cells/mL (1,000 cells/well)] from growth curve. Treated cells were inclubated at 37° C., 5% CO2, relative humidity >90% for 7 days. CellTiter-Glo (CTG) ATP detection reagent was prepared according to manufacturer's specifications. Cell assay plates were removed from incubator and bring to room temperature (RT).
Using the MultiDrop liquid handler, 30 μL of CTG were added per well. Plates were placed on the multidrop dispenser shake for 5 seconds at RT. Plates were incubated for 30 minutes in the dark at RT before measuring luminescence using the Envison2104.
Data analysis: Using the DMSO control wells as the 0% inhibition (high signal) control and the 10 uM Doxorubicin control wells as the 100% inhibition (low signal) control, percent inhibition EC50s (inflection point) and IC50s were calculated for the compound dose responses.
For `O=C(Nc1cc(F)c(=O)n(CC(F)F)c1)c1cc(C#C[C@H]2C[C@H](CO)C2)c(Cl)s1` [Compound 133d], the IC50 was greater than 10000 nM.

With `CN(C)C(=O)C#Cc1cc(C(=O)Nc2cc(F)c(=O)n(CC(F)F)c2)sc1Cl` [Compound 71d], the IC50 was found to be 4090 nM.

As for `N#Cc1cc(NC(=O)c2cc(Cl)c(C(F)(F)F)s2)cn(CC(F)F)c1=O` [Compound 86d], the IC50 came out at 8560 nM.

`Cc1cc(NC(=O)c2cc(C#N)c(C(F)(F)F)s2)cn(CC(F)F)c1=O` [Compound 75d]: the IC50 is greater than 10000 nM.

As to `N#Cc1cc(C(=O)Nc2cc(O)c(=O)n(CC(F)F)c2)sc1C(F)(F)F` [Compound 88d], the IC50 was greater than 10000 nM.

Turning to `N#Cc1cc(C(=O)Nc2cc(C(N)=O)c(=O)n(CC(F)F)c2)sc1C(F)(F)F` [Compound 137d], the IC50 was greater than 10000 nM.

In the case of `O=C(Nc1cc(F)c(=O)n(CC(F)F)c1)c1cc(C#Cc2ccc3cncn3c2)c(Cl)s1` [Compound 96d], the IC50 was greater than 10000 nM.

With `O=C(Nc1cc(F)c(=O)n(CC(F)F)c1)c1cc(C#C[C@H]2C[C@@H](CO)C2)c(Cl)s1` [Compound 134d], the IC50 is greater than 10000 nM.

Regarding `O=C1C[C@H](C#Cc2cc(C(=O)Nc3cc(F)c(=O)n(CC(F)F)c3)sc2Cl)CCN1` [Compound 63d], the IC50 is greater than 10000 nM.

Consider `O=C(Nc1cc(F)c(=O)n(CC(F)F)c1)c1cc(C#CC(=O)N2CCCC2)c(Cl)s1` [Compound 70d], for which the IC50 was found to be 9840 nM.

As for `O=C(Nc1cc(F)c(=O)n(CC(F)F)c1)c1cc(C#CC2CNCCO2)c(Cl)s1` (centres unmarked) [Compound 109d], the IC50 is greater than 10000 nM.

Consider `Cc1cc(NC(=O)c2cc(Cl)c(C(F)(F)F)s2)cn(CC(F)F)c1=O` [Compound 82d], for which the IC50 is greater than 10000 nM.

As to `O=C(Nc1cc(F)c(=O)n(CC(F)F)c1)c1cc(C#Cc2cn3c(n2)COCC3)c(Cl)s1` [Compound 90d], the IC50 was greater than 10000 nM.

On to `CC(N)C#Cc1cc(C(=O)Nc2cc(F)c(=O)n(CC(F)F)c2)sc1Cl` (centres unmarked) [Compound 138d], for which the IC50 is greater than 10000 nM.
